Laboratory results published in article PMC9458004, “Simultaneous Determination and Pharmacokinetics Study of Three Triterpenes from Sanguisorba officinalis L. in Rats by UHPLC–MS/MS” (Molecules, 2022).

What was measured:
[1] = Stability of the three analytes in rat plasma under various storage conditions; type: in vitro ADME; settings: storage for 2 weeks at −80 °C (b26 says −20 °C), n = 6
[2] = Pharmacokinetic study in rats after single oral administration of ZGI, DGE, PA or S. officinalis extract (plasma, UHPLC-MS/MS); type: in vivo, Sprague-Dawley rats; settings: for conversion in vivo after oral administration (in words): rats, oral administration of the monomer, from plasma levels of ZGI, DGE, PA
Text: The UHPLC–MS/MS method was successfully used in the pharmacokinetic studies of the three analytes after single dose administration of ZGI, DGE, PA, and S. officinalis extract in rats (0.55 g/kg, equivalent to 0.03, 0.013, and 0.007 g/kg of ZGI, DGE, and PA, respectively). Based on the body surface area calculations of people and the animals and equivalent dose conversion calculations, the dosage of the rats was 0.55 g/kg.
The experimental protocol was permitted by the Animal Ethics Committee of Harbin Medical University (Approval Code: AECHMU20150021, Approval Date: 3 June 2015) and conformed to the principles for the Care and Use of Laboratory Animals. Twenty-four male Sprague-Dawley rats (weighting 200 ± 20 g), which were provided by the Laboratory Animal Center at Harbin Medical University (Harbin, China), were used for the pharmacokinetic study. The animals were maintained in a SPF-grade room on a 12 h light/dark cycle with a controlled temperature conditions (21 ± 2 °C) and relative humidity (50 ± 5%) before the experiment. During the adaptation process, all rats were provided with standard food and purified water each morning and evening. Each rat fasted for 12 h before giving the drug and was randomly divided into one of four groups (n = 6).
A single dose of the S. officinalis extract (0.55 g/kg, group I), ZGI (0.03 g/kg, group II), DGE ([…], group III), and PA (0.013 g/kg, group IV) was administrated to the rats. The S. officinalis extract was dissolved in water. A single dose of 0.55 g/kg of S. officinalis extract was administrated to the rats. Blood was obtained from the retinal venous plexus at 0, 0.083, 0.5, 1.0, 1.5, 2.0, 2.5, 3.0, 4.0, 6.0, 8.0, 12.0, and 24.0 h after dosing. The plasma was immediately separated by centrifugation at 8000 rpm for 4 min at −4 °C.
The maximum concentration (Cmax) and the time to attain it (Tmax) were observed directly from the measured data. The elimination rate constant (Ke) was calculated by linear regression of the terminal points in a semi-log plot of the plasma concentration against time. The area under plasma concentration–time curve (AUC0→t) to the last measurable plasma concentration (Ct) was estimated using the linear trapezoidal rule.
Calculate the amount of three compounds using linear regression from the standard curve. The pharmacokinetic parameters of the analytes were calculated with DAS 2.0 (Shanghai, China). All results were expressed as mean ± SD. The comparison of pharmacokinetic parameters was conducted using standard Student’s t-test. Differences between groups were assumed statistically significant for p values < 0.05.

[3] = Stability of the three analytes in rat plasma under various storage conditions; type: in vitro ADME; settings: n = 6; for Stability (% RE) Post-Preparative: 12 h after sample preparation at 4 °C; for Stability (% RE) Short-Term / Stability (% RE) Three Freeze-Thaw: rat plasma; for Stability (% RE) Short-Term: 4 h at ambient temperature; for Stability (% RE) Three Freeze-Thaw: three freeze-thaw cycles at −20 °C
Method: The stability of rat plasma under different storage conditions was determined. […] All compounds maintained steady levels for […].
The stability of the three compounds in rat plasma, including freeze and thaw stability (three freeze-thaw cycles at −20 °C), long-term stability (storage for 2 weeks at −80 °C), room temperature stability (storage for 4 h at ambient temperature), and post-preparation stability (storage for 12 h after sample preparation at 4 °C), was tested at two QC levels with six replicates at each level. All stability testing QC samples were determined using the calibration curve of freshly prepared standard samples.

[4] = high QC (ZGI 2080, DGE 1840, PA 840.0 ng/mL)
[5] = low QC (ZGI 19.5, DGE 17.4, PA 7.8 ng/mL)

Stability (% RE) Long-Term [1, 4] [% RE] | Stability (% RE) Long-Term [1, 5] [% RE] | conversion in vivo after oral administration (in words) [2] | Stability (% RE) Post-Preparative [3, 4] [% RE] | Stability (% RE) Post-Preparative [3, 5] [% RE] | Stability (% RE) Short-Term [3, 4] [% RE] | Stability (% RE) Short-Term [3, 5] [% RE] | Stability (% RE) Three Freeze-Thaw [3, 4] [% RE] | Stability (% RE) Three Freeze-Thaw [3, 5] [% RE] | Cmax ([2]; male, Sprague-Dawley, analyte ZGI in rat plasma, single oral dose of the row's substance (S. officinalis extract 0.55 g/kg, ZGI 0.03 g/kg), n = 6, mean ± SD) [ng/mL] | Tmax ([2]; male, Sprague-Dawley, analyte ZGI in rat plasma, single oral dose of the row's substance (extract 0.55 g/kg, ZGI 0.03 g/kg), n = 6) [h] | half-life ([2]; male, Sprague-Dawley, analyte ZGI in rat plasma, single oral dose of the row's substance (extract 0.55 g/kg, ZGI 0.03 g/kg), n = 6, read-out: t1/2 of ZGI (converted)) [h] | SMILES
7.6 | 13 | cannot convert into ZGI and DGE | 13 | 7.1 | 3.1 | −5.0 | 5.2 | 12 | – | – | – | C[C@@H]1CC[C@]2(C(=O)O)CC[C@]3(C)C(=CC[C@@H]4[C@@]5(C)CC[C@H](O)C(C)(C)[C@@H]5CC[C@]43C)[C@@H]2[C@]1(C)O [PA, pomolic acid]
3.4 | 15 | may be converted into DGE and PA | 6.4 | 9.2 | 2.4 | 14 | 2.8 | 6.2 | 678 ± 47 | 1.4 ± 0.2 | 11 ± 1 | C[C@@H]1CC[C@]2(C(=O)O[C@@H]3O[C@H](CO)[C@@H](O)[C@H](O)[C@H]3O)CC[C@]3(C)C(=CC[C@@H]4[C@@]5(C)CC[C@H](O[C@@H]6OC[C@H](O)[C@H](O)[C@H]6O)C(C)(C)[C@@H]5CC[C@]43C)[C@@H]2[C@]1(C)O [ZGI, Ziyuglycoside I]
5.8 | 9.6 | may be transformed into PA | 7.7 | 14 | 0.70 | 8.4 | 3.5 | 3.3 | – | – | – | CC1CCC2(C(=O)OC3OC(CO)C(O)C(O)C3O)CCC3(C)C(=CCC4C5(C)CCC(O)C(C)(C)C5CCC43C)C2C1(C)O [DGE, 3β,19α-dihydroxyurs-12-en-28-oic-acid 28-β-D-glucopyranosyl ester]
